Test results from US12281057B2 (VERTEX PHARMACEUTICALS INCORPORATED, priority 2017, dated 2025).

target: truncated form of human NaV 1.8 with full channel activity (Homo sapiens, UniProt Q9Y5Y9); assay: E-VIPR Assay Method A for detecting and measuring Nav inhibition (HEK cells, membrane potential FRET dyes, electrical stimulation); assay type: cell-based; details: HEK cells expressing human NaV 1.8, HS (human serum) in compound loading buffer, 11 point dose response, top dose 3 μM, Table 20, read-out: Nav 1.8 MedChem Optical Assay EVIPR Assay Method A HS IC50
Outline: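 Read-out: FRET membrane-potential dye ratio (460/580 nm) before and during E-VIPR field stimulation at 10 Hz for 10 s, expressed as % activity between DMSO and positive controls. Cells: HEK with truncated human NaV1.8; compound preincubated 30 min at room temp, final DMSO 0.625%.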

Sequence of truncated form of human NaV 1.8 with full channel activity (Q9Y5Y9 126-1722 limits assumed): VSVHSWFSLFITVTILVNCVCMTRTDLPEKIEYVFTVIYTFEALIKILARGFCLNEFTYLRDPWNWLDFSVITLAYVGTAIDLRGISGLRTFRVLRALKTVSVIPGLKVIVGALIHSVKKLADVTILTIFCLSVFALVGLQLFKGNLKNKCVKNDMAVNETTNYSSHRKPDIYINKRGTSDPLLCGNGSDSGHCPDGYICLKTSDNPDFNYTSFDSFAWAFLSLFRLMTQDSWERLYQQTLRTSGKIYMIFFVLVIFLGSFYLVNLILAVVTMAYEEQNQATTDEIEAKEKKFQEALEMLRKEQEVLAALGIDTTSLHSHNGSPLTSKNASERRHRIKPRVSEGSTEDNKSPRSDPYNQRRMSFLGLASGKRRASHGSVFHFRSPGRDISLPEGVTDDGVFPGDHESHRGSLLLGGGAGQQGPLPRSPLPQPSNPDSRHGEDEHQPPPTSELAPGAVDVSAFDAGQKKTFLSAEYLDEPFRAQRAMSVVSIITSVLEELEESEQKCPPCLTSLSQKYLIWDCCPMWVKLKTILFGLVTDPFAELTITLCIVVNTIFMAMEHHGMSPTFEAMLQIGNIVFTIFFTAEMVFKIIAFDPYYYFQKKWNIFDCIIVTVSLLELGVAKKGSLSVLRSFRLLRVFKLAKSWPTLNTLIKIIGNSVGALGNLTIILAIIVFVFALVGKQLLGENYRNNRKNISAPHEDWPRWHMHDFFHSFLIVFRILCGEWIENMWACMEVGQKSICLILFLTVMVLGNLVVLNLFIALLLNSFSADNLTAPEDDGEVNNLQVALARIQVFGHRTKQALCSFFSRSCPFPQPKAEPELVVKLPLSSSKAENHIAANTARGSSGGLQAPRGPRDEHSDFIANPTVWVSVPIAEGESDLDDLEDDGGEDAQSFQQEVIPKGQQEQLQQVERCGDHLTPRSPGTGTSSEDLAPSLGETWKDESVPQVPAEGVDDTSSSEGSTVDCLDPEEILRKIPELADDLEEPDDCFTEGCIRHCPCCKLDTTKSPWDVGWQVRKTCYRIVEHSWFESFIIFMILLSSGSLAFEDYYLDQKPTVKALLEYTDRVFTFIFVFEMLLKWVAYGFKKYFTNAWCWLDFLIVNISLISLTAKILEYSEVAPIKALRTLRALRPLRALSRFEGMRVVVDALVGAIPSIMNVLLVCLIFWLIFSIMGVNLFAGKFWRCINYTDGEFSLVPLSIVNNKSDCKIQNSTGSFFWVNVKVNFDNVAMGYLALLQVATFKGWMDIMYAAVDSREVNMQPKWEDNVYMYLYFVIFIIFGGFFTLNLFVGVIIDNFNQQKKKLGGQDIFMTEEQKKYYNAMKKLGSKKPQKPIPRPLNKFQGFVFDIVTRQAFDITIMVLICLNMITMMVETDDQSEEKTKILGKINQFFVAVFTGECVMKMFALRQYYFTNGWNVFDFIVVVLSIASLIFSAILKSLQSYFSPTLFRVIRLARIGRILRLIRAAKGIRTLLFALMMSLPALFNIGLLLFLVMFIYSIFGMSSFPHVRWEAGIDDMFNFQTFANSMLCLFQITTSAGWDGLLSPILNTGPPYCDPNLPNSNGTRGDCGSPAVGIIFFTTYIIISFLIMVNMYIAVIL

Row | IC50 [nM] | Structure (SMILES)
1 | 18 | NC(=O)c1cc(NC(=O)c2c(Oc3ccc(F)cc3)ccc(C(F)(F)F)c2F)ccc1F [Compound 25, N-(3-carbamoyl-4-fluoro-phenyl)-2-fluoro-6-(4-fluorophenoxy)-3-(trifluoromethyl)benzamide]
2 | 0.7 | [2H]C([2H])([2H])Oc1cc(OC(F)(F)F)ccc1Oc1ccc(C(F)(F)F)c(F)c1C(=O)Nc1ccc(F)c(C(N)=O)c1 [Compound 1, N-(3-carbamoyl-4-fluoro-phenyl)-2-fluoro-6-[2-(trideuteriomethoxy)-4-(trifluoromethoxy)phenoxy]-3-(trifluoromethyl)benzamide]
3 | 1 | [2H]C([2H])([2H])Oc1cc(OC(F)(F)F)ccc1Oc1ccc(OC(F)(F)F)c(F)c1C(=O)Nc1ccc(F)c(C(N)=O)c1 [Compound 3, N-(3-carbamoyl-4-fluoro-phenyl)-2-fluoro-6-[2-(trideuteriomethoxy)-4-(trifluoromethoxy)phenoxy]-3-(trifluoromethoxy)benzamide]
4 | 9 | NC(=O)c1cc(NC(=O)c2c(Oc3ccc(OC(F)(F)F)c(F)c3)ccc(C(F)(F)F)c2F)ccc1F [Compound 18, N-(3-carbamoyl-4-fluoro-phenyl)-2-fluoro-6-[3-fluoro-4-(trifluoromethoxy)phenoxy]-3-(trifluoromethyl)benzamide]

same assay, conditions: HEK cells expressing human NaV 1.8, HS (human serum) in compound loading buffer, 11 point dose response, top dose 3 μM, Table 20A, read-out: Nav 1.8 MedChem Optical Assay EVIPR Assay Method A HS IC50

Row | IC50 [nM] | Structure (SMILES)
5 | 97 | COc1cc(OC(F)(F)F)ccc1Oc1cc(C2CC2)ncc1C(=O)Nc1ccnc(C(N)=O)c1 [Compound 78]
6 | 7 | [2H]C([2H])([2H])Oc1c(Oc2ccc(C(F)(F)F)c(F)c2C(=O)Nc2ccnc(C(=O)NC)c2)ccc(OC(F)(F)F)c1F [Compound 228, 4-[[2-Fluoro-6-[3-fluoro-2-(trideuteriomethoxy)-4-(trifluoromethoxy)phenoxy]-3-(trifluoromethyl)benzoyl]amino]-N-methyl-pyridine-2-carboxamide]
7 | 340 | COc1cc(OC(F)(F)F)ccc1Oc1cncc(F)c1C(=O)Nc1ccnc(C(N)=O)c1 [Compound 165, N-(2-Carbamoyl-4-pyridyl)-3-fluoro-5-[2-methoxy-4-(trifluoromethoxy)phenoxy]pyridine-4-carboxamide]
8 | 50 | COc1cc(OC(F)(F)F)ccc1Oc1cc(C2CC2(F)F)ncc1C(=O)Nc1ccc(F)c(C(N)=O)c1 (stereo not shown) [Compound 108, N-(3-Carbamoyl-4-fluoro-phenyl)-6-(2,2-difluorocyclopropyl)-4-[2-methoxy-4-(trifluoromethoxy)phenoxy]pyridine-3-carboxamide]
9 | 150 | COc1cc(OC(F)(F)F)ccc1Oc1ccc(C(F)(F)F)c(F)c1C(=O)Nc1cc(C(N)=O)ccn1 [Compound 87, 2-[[2-fluoro-6-[2-methoxy-4-(trifluoromethoxy)phenoxy]-3-(trifluoromethyl)benzoyl]amino]pyridine-4-carboxamide]
10 | 38 | COc1cc(OC(F)(F)F)ccc1Oc1ccc(C(F)(F)C(F)(F)F)cc1C(=O)Nc1ccnc(C(N)=O)c1 [Compound 81]
11 | 135 | NC(=O)c1cc(F)cc(NC(=O)c2c(Oc3ccc(OC(F)(F)F)cc3)ccc(C(F)(F)F)c2F)c1 [Compound 101, N-(3-carbamoyl-5-fluoro-phenyl)-2-fluoro-6-[4-(trifluoromethoxy)phenoxy]-3-(trifluoromethyl)benzamide]
12 | 1 | COc1cc(OC(F)(F)F)ccc1Oc1cnc(C(F)(F)F)c(F)c1C(=O)Nc1ccc(F)c(C(N)=O)c1 [Compound 45, N-(3-carbamoyl-4-fluoro-phenyl)-3-fluoro-5-[2-methoxy-4-(trifluoromethoxy)phenoxy]-2-(trifluoromethyl)pyridine-4-carboxamide]
13 | 45 | COc1cc(OC(F)(F)F)ccc1Oc1ccc(C(F)(F)F)c(F)c1C(=O)Nc1ccc(F)c(C(=O)N(C)C)c1 [Compound 95, N-[3-(dimethylcarbamoyl)-4-fluoro-phenyl]-2-fluoro-6-[2-methoxy-4-(trifluoromethoxy)phenoxy]-3-(trifluoromethyl)benzamide]

Further lines, the molecule ahead of its results:

Row | Structure (SMILES) | IC50 [nM]
14 | [2H]C([2H])([2H])Oc1cc(OC(F)(F)F)ccc1Oc1cc(Cl)cc(Cl)c1C(=O)Nc1ccc(C(N)=O)nc1 [Compound 183, 5-[[2,4-Dichloro-6-[2-(trideuteriomethoxy)-4-(trifluoromethoxy)phenoxy]benzoyl]amino]pyridine-2-carboxamide] | 99
15 | NC(=O)c1ccc(NC(=O)c2c(Oc3ccc(OC(F)(F)F)cc3)ccc3c2CCC3(F)F)cn1 [Compound 192, 5-[[1,1-Difluoro-5-[4-(trifluoromethoxy)phenoxy]indane-4-carbonyl]amino]pyridine-2-carboxamide] | 420
16 | COc1cc(OC(F)(F)F)ccc1Oc1cc(C(F)(F)F)cnc1C(=O)Nc1ccc(F)c(C(N)=O)c1 [Compound 32, N-(3-Carbamoyl-4-fluoro-phenyl)-3-[2-methoxy-4-(trifluoromethoxy)phenoxy]-5-(trifluoromethyl)pyridine-2-carboxamide] | 55
17 | COc1cc(F)ccc1Oc1ccc(OC(F)(F)F)cc1C(=O)Nc1ccnc(C(N)=O)c1 [Compound 157, 4-[[2-(4-Fluoro-2-methoxy-phenoxy)-5-(trifluoromethoxy)benzoyl]amino]pyridine-2-carboxamide] | 1000
18 | NC(=O)c1cccc(NC(=O)c2c(Oc3ccc(OC(F)(F)F)cc3F)ccc(C(F)(F)F)c2F)c1 [Compound 89, N-(3-carbamoylphenyl)-2-fluoro-6-[2-fluoro-4-(trifluoromethoxy)phenoxy]-3-(trifluoromethyl)benzamide] | 44
19 | COc1cc(OC(F)(F)F)ccc1Oc1ccc(C(F)(F)F)c(OC)c1C(=O)Nc1ccc(C(N)=O)cn1 [Compound 205, 6-[[2-Methoxy-6-[2-methoxy-4-(trifluoromethoxy)phenoxy]-3-(trifluoromethyl)benzoyl]amino]pyridine-3-carboxamide] | 150
20 | NC(=O)c1cc(NC(=O)c2c(Oc3ccc(OC(F)(F)F)c(F)c3)ccc(OC(F)(F)F)c2F)ccn1 [Compound 241, 4-[[2-fluoro-6-[3-fluoro-4-(trifluoromethoxy)phenoxy]-3-(trifluoromethoxy)benzoyl]amino]pyridine-2-carboxamide] | 38
21 | [2H]C([2H])([2H])Oc1cc(OC(F)(F)F)ccc1Oc1ccc(OC(F)(F)F)cc1C(=O)Nc1ccnc(C(N)=O)c1 [Compound 158, 4-[[2-[2-(Trideuteriomethoxy)-4-(trifluoromethoxy)phenoxy]-5-(trifluoromethoxy)benzoyl]amino]pyridine-2-carboxamide] | 150
22 | [2H]C([2H])([2H])Oc1c(Oc2cc(Cl)c(C(F)F)c(F)c2C(=O)Nc2ccnc(C(N)=O)c2)ccc(OC(F)(F)F)c1F [Compound 234, 4-[[4-Chloro-3-(difluoromethyl)-2-fluoro-6-[3-fluoro-2-(trideuteriomethoxy)-4-(trifluoromethoxy)phenoxy]benzoyl]amino]pyridine-2-carboxamide] | 4
23 | COc1cc(OC(F)(F)F)ccc1Oc1ccc(C(F)(F)F)c(F)c1C(=O)Nc1cccc(C(N)=O)c1 [Compound 44, N-(3-carbamoylphenyl)-2-fluoro-6-[2-methoxy-4-(trifluoromethoxy)phenoxy]-3-(trifluoromethyl)benzamide] | 5
24 | COc1cc(OC(F)(F)F)ccc1Oc1cc(C2CC2)c(C(F)(F)F)cc1C(=O)Nc1ccnc(C(N)=O)c1 [Compound 125, 4-[[4-Cyclopropyl-2-[2-methoxy-4-(trifluoromethoxy)phenoxy]-5-(trifluoromethyl)benzoyl]amino]pyridine-2-carboxamide] | 34
25 | NC(=O)c1cc(NC(=O)c2c(Oc3ccc(OC(F)(F)F)c(Cl)c3)ccc(C(F)(F)F)c2F)ccn1 [Compound 53] | 17
26 | COc1cc(OC(F)(F)F)ccc1Oc1cc(C(C)(C)C)ncc1C(=O)Nc1ccc(F)c(C(N)=O)c1 [Compound 94, 6-tert-Butyl-N-(3-carbamoyl-4-fluoro-phenyl)-4-[2-methoxy-4-(trifluoromethoxy)phenoxy]pyridine-3-carboxamide] | 18
27 | [2H]C([2H])([2H])Oc1c(Oc2cc(C(F)(F)F)cc(F)c2C(=O)Nc2ccnc(C(N)=O)c2)ccc(OC(F)(F)F)c1F [Compound 223, 4-[[2-Fluoro-6-[3-fluoro-2-(trideuteriomethoxy)-4-(trifluoromethoxy)phenoxy]-4-(trifluoromethyl)benzoyl]amino]pyridine-2-carboxamide] | 8
28 | COc1cc(OC(F)(F)F)ccc1Oc1cnc(C(F)(F)F)cc1C(=O)Nc1ccc(F)c(C(N)=O)c1 [Compound 68, N-(3-Carbamoyl-4-fluoro-phenyl)-5-[2-methoxy-4-(trifluoromethoxy)phenoxy]-2-(trifluoromethyl)pyridine-4-carboxamide] | 21
29 | [2H]C([2H])([2H])Oc1cc(OC(F)(F)F)ccc1Oc1ccc(OC(F)(F)F)c(F)c1C(=O)Nc1ccc(C(N)=O)nc1 [Compound 167, 5-[[2-fluoro-6-[2-(trideuteriomethoxy)-4-(trifluoromethoxy)phenoxy]-3-(trifluoromethoxy)benzoyl]amino]pyridine-2-carboxamide] | 45
30 | CCOc1c(C(F)(F)F)ncc(Oc2ccc(OC(F)(F)F)cc2OC)c1C(=O)Nc1ccnc(C(N)=O)c1 [Compound 206, N-(2-Carbamoyl-4-pyridyl)-3-ethoxy-5-[2-methoxy-4-(trifluoromethoxy)phenoxy]-2-(trifluoromethyl)pyridine-4-carboxamide] | 45
31 | COc1cc(OC(F)(F)F)ccc1Oc1cc(C(F)(F)F)cnc1C(=O)Nc1cccc(C(N)=O)c1 [Compound 31, N-(3-Carbamoylphenyl)-3-[2-methoxy-4-(trifluoromethoxy)phenoxy]-5-(trifluoromethyl)pyridine-2-carboxamide] | 155
